In PubChem BioAssay AID1549 (Sanford-Burnham Center for Chemical Genomics, 2009) one finds Kd data, which are given here for 93 molecules.

The structures appear in SMILES notation. Activity calls are given as the source filed them. No rule for the calls is given here. Bounds are passed on as bounds.

The target in this assay is Influenza A virus M2 proton channel (A/TW/4845/1999 H1N1). Kind of assay: NMR binding screen, influenza A virus M2 proton channel, Kd (AID 1549). As to conditions: M2 protein.
Take `O=C(NC1CCS(=O)(=O)C1)c1ccccc1` (stereo not drawn): the Kd is > 4 mM (inactive).
On to `CC(=O)OCC(OC(C)=O)C(OC(C)=O)C(OC(C)=O)C(OC(C)=O)C(COC(C)=O)OC(C)=O` (stereo not drawn), for which the Kd was > 4 mM (inactive).
`O=C(Nc1cccc(O)c1)c1ccccc1`: the Kd is > 4 mM (inactive).
On to `CC1=CCCC2C1(C)CCC(C)C2(C)CC/C(C)=C/C[n+]1cn(C)c2c(N)ncnc21` (stereo not drawn), for which the Kd is > 4 mM (inactive).
The value for `O[C@H]1C=C2CCN3Cc4cc5c(cc4C(C23)[C@@H]1O)OCO5` (stereo partly drawn) was > 4 mM (inactive).
The value for `O=C(Nc1ccc(N2CCOCC2)cc1)C1CC1` was > 4 mM (inactive).
The value for `CCOc1ccc(C)cc1S(=O)(=O)n1ccnc1` was > 4 mM (inactive).
As for `Nc1nc(-c2ccc(Cl)cc2)nn1C(=O)c1cccnc1`, the Kd was > 4 mM (inactive).
Consider `Nc1ccc(-n2cccn2)cc1`, for which the Kd is > 4 mM (inactive).
As for `Nc1nc2c3ccccc3nc(Cc3ccccc3)n2n1`, the Kd was > 4 mM (inactive).
In the case of `CNS(=O)(=O)c1cc(OC)ccc1OC`, the Kd is > 4 mM (inactive).
For `COc1cc(C)c2c(c1C=O)Oc1c(c(C)c(O)c3c1C(O)OC3=O)OC2=O` (stereo not drawn), the Kd is > 4 mM (inactive).
On to `NC1=NC(=O)/C(=C/c2ccc(O)c(Cl)c2)S1`, for which the Kd was > 4 mM (inactive).
The value for `CC1O[C@@H](Oc2c(-c3ccc(O)c(O)c3)oc3cc(O)cc(O)c3c2=O)[C@H](O)[C@H](O)[C@H]1O` (stereo partly drawn) was > 4 mM (inactive); that for `Cc1ccc(-n2[nH]c(C)cc2=O)cc1` was > 4 mM (inactive).
For `O=C(OC[C@H]1O[C@H](OC(=O)c2cc(O)c(O)c(OC(=O)c3cc(O)c(O)c(O)c3)c2)[C@H](OC(=O)c2cc(O)c(O)c(OC(=O)c3cc(O)c(O)c(O)c3)c2)[C@@H](OC(=O)c2cc(O)c(O)c(OC(=O)c3cc(O)c(O)c(O)c3)c2)[C@@H]1OC(=O)c1cc(O)c(O)c(OC(=O)c2cc(O)c(O)c(O)c2)c1)c1cc(O)c(O)c(OC(=O)c2cc(O)c(O)c(O)c2)c1`, the Kd was > 4 mM (inactive).
With `NC(=O)c1cc2c(n(-c3ccccc3)c1=O)CCCC2=O`, the Kd is > 4 mM (inactive).
For `Cc1cc(C)n(CCCC(=O)O)n1`, the Kd was > 4 mM (inactive).
As for `CCOc1ccc(C(=O)c2ccc(O)c(O)c2O)cc1`, the Kd was > 4 mM (inactive).
On to `CSc1nc2nc(C)cc(=O)n2[nH]1`, for which the Kd is > 4 mM (inactive).
Turning to `O=C1NC(=Nc2ccccc2)S/C1=C/c1cccnc1`, the Kd was > 4 mM (inactive).
`OCC1CCN(c2ncccn2)CC1`: the Kd is > 4 mM (inactive).
Consider `Cc1cc(NC(=O)c2ocnc2C)no1`, for which the Kd is > 4 mM (inactive).
The value for `COc1ccc(S(N)(=O)=O)cc1` was > 4 mM (inactive); that for `CN1CCN(C(=O)c2ccccc2N)CC1` was > 4 mM (inactive); that for `FC(F)(F)c1cc(-c2ccco2)nc(N2CCOCC2)n1` was > 4 mM (inactive).
As to `Cc1cc(C(=O)Nc2ccon2)cs1`, the Kd is > 4 mM (inactive).
In the case of `O=C1CCC(=O)N1CN1CCOCC1`, the Kd was > 4 mM (inactive).
Take `COC1C=CC23c4cc5c(cc4CN(CC2O)[C@@H]3C1)OCO5` (stereo partly drawn): the Kd was > 4 mM (inactive).
Turning to `COC1=CC23CCCN2CCc2cc4c(cc2C3C1O)OCO4` (stereo not drawn), the Kd was > 4 mM (inactive).
Take `Cn1nnc2cc(C(=O)O)ccc21`: the Kd was > 4 mM (inactive).
Consider `Cc1nnc(NCc2cccnc2)[nH]c1=O`, for which the Kd is > 4 mM (inactive).
In the case of `CCC(C)C(=O)O[C@H]1[C@H](O)C2C(CN3CC(C)CCC3[C@@]2(C)O)C2C[C@]34O[C@]5(O)C(OC(=O)C(C)(O)C(C)O)CC[C@@]3(C)C5C(OC(C)=O)[C@@H](OC(C)=O)C4[C@@]21O` (stereo partly drawn), the Kd is > 4 mM (inactive).
The value for `CC(CCC(=O)O)[C@H]1CCC2C3C(C[C@H](O)[C@@]21C)[C@@]1(C)CC[C@@H](O)C[C@H]1C[C@H]3O` (stereo partly drawn) was > 4 mM (inactive); that for `Nc1c(Nc2ccccc2)c2ccccc2oc1=O` was > 4 mM (inactive).
The value for `O=C(NC12CC3CC(CC(C3)C1)C2)c1cnccn1` was > 4 mM (inactive); that for `c1coc(-c2nc(-c3ccncc3)no2)c1` was > 4 mM (inactive).
For `O=C(O)c1ccc2c(c1)CCO2`, the Kd was > 4 mM (inactive).
Turning to `Cc1onc(-c2ccc(F)cc2)c1C(=O)O`, the Kd was > 4 mM (inactive).
For the molecule `Nc1cc(=O)[nH]c(SCC(=O)Nc2nccs2)n1`, the Kd is > 4 mM (inactive).
For `N=c1n(N)c2ccccc2n1CCO`, the Kd is > 4 mM (inactive).
As for `O=C1NC(=O)C(C(C[N+](=O)[O-])c2ccc(O)cc2)C(=O)N1` (stereo not drawn), the Kd was > 4 mM (inactive).
Consider `Cn1cnc2c1c(=O)[nH]c(=O)n2C`, for which the Kd is > 4 mM (inactive).
Turning to `NC(=O)CN1CCCCCC1=O`, the Kd was > 4 mM (inactive).
The value for `CCOC(=O)c1c(C)[nH]c2ccc(O)cc12` was > 4 mM (inactive); that for `O=C1c2ccccc2-c2ncnc3cccc1c23` was > 4 mM (inactive).
As to `Nc1ccc2nccnc2c1`, the Kd is > 4 mM (inactive).
In the case of `Cc1ccc(-c2nc(-c3cccnc3)no2)cc1`, the Kd is > 4 mM (inactive).
In the case of `Cc1ccc(-c2nc(N)n(C(=O)c3cccnc3)n2)cc1`, the Kd is > 4 mM (inactive).
On to `CN1CCN(C2CCN(Cc3ccccc3)CC2)CC1`, for which the Kd is > 4 mM (inactive).
For `COc1ccc(-c2oc3c(CC=C(C)C)c(O[C@@H]4O[C@H](CO)[C@@H](O)[C@H](O)[C@H]4O)cc(O)c3c(=O)c2O[C@@H]2O[C@@H](C)[C@H](O)[C@@H](O)[C@H]2O)cc1`, the Kd is > 4 mM (inactive).
`O=C(CSc1ccccc1)N1CCC2(CC1)OCCO2`: the Kd was > 4 mM (inactive).
For the molecule `CC(C)C(C)/C=C/C(C)C1CCC2C3=CC=C4CC(O)CCC4(C)C3CCC21C` (stereo not drawn), the Kd is > 4 mM (inactive).
The value for `O=C(O)c1ccnc2ccccc12` was > 4 mM (inactive); that for `O=C(O)C(O)C(O)C(O)C(O)C(=O)O` (stereo not drawn) was > 4 mM (inactive).
As to `OC12CC3CC(C1)C1(NCCS1)C(C3)C2` (stereo not drawn), the Kd was > 4 mM (inactive).
The value for `O=C1c2ccncc2C(=O)N1CO` was > 4 mM (inactive); that for `COc1ccc(-c2nc3nc(C)cc(C)n3n2)cc1` was > 4 mM (inactive); that for `COC1C(O)C(O)C(O)[C@@H](O)C1O` (stereo partly drawn) was > 4 mM (inactive).
The value for `Cc1cc(N2C(=O)CCC2=O)n(-c2ccccc2)n1` was > 4 mM (inactive); that for `O=C(NCc1cccc(Cl)c1)c1ccco1` was > 4 mM (inactive).
For the molecule `CC(C)=CCC[C@](C)(O)C1CC=C(C)CC1` (stereo partly drawn), the Kd is > 4 mM (inactive).
The value for `COc1ccc(N2CC(=O)NC2=O)cc1` was > 4 mM (inactive); that for `NC(=O)C1CCN(Cc2ccccc2)CC1` was > 4 mM (inactive); that for `c1ccc(CNc2ncnc3nc[nH]c23)nc1` was > 4 mM (inactive).
Consider `COc1c(-c2coc3cc4c(cc3c2=O)CC(O)C(C)(C)O4)ccc2c1C=CC(C)(C)O2` (stereo not drawn), for which the Kd was > 4 mM (inactive).
Consider `OCn1nnn(-c2ccccc2)c1=S`, for which the Kd is > 4 mM (inactive).
For `O=C(O)CCSc1nc2ccccc2s1`, the Kd is > 4 mM (inactive).
Take `C/C=C/C=N/NC(=O)c1ccc(=O)n(C)c1`: the Kd is > 4 mM (inactive).
Regarding `NC(CC(=O)O)C(=O)Nc1ccc(Cl)cc1` (stereo not drawn), the Kd is > 4 mM (inactive).
Turning to `Nc1nc2ccc(N3CCOCC3)cc2s1`, the Kd was > 4 mM (inactive).
For `Nc1ncnc(NCCOCCO)c1[N+](=O)[O-]`, the Kd is > 4 mM (inactive).
In the case of `COc1cccc(/C=N/N=C2/NC(=O)CS2)c1`, the Kd was > 4 mM (inactive).
Take `CC(C)=CCc1c2c(c(O)c3c(=O)c(O)c(-c4ccccc4)oc13)C=CC(C)(C)O2`: the Kd was > 4 mM (inactive).
The value for `COc1ccc([C@H]2COc3c(ccc(O)c3OC)C2)c(OC)c1O` was > 4 mM (inactive).
Turning to `O=c1[nH]c(O)c(C=NCc2cccs2)c(=O)[nH]1`, the Kd is > 4 mM (inactive).
On to `COc1cc(-c2coc3cc(O[C@@H]4O[C@H](CO)[C@@H](O)[C@H](O)[C@H]4O)c(OC)c(O)c3c2=O)cc(O)c1OC`, for which the Kd is > 4 mM (inactive).
Regarding `COC(=O)c1cc2cc(N)ccc2s1`, the Kd is > 4 mM (inactive).
As for `Cc1cc2c(nn1)CCc1nonc1-2`, the Kd was > 4 mM (inactive).
Consider `COc1nc(C#N)c(N2CCOCC2)o1`, for which the Kd is > 4 mM (inactive).
As to `CN1CCN(C(=O)c2cc(-c3ccccc3)on2)CC1`, the Kd is > 4 mM (inactive).
With `O=C1CN(C(=O)c2ccccc2F)c2ccccc2N1`, the Kd is > 4 mM (inactive).
As to `OC[C@H]1O[C@@](CO)(O[C@@H]2O[C@H](CO)[C@@H](O)[C@H](O)[C@H]2O)[C@@H](O[C@@H]2O[C@H](CO)[C@@H](O)[C@H](O)[C@H]2O)[C@@H]1O`, the Kd was > 4 mM (inactive).
For the molecule `CC12CCC(O)CC1CCC1C2[C@H](O)CC2(C)C(C3=CC(=O)OC3)CCC12O` (stereo partly drawn), the Kd is > 4 mM (inactive).
For the molecule `Cc1ccn(S(=O)(=O)c2ccc(F)cc2)n1`, the Kd is > 4 mM (inactive).
The value for `Nc1nc2ncc(CNc3ccc(C(=O)N[C@@H](CCC(=O)O)C(=O)O)cc3)nc2c(=O)[nH]1` was > 4 mM (inactive); that for `COc1c(OC)c2occc2c2oc(=O)ccc12` was > 4 mM (inactive); that for `CSc1nnc2[nH]c(=O)cc(N)n12` was > 4 mM (inactive).
For the molecule `O=C(Nc1ccncc1)c1c(F)cccc1F`, the Kd is > 4 mM (inactive).
In the case of `C/C=C(\C)C(=O)O[C@@H]1c2c(ccc3ccc(=O)oc23)OC(C)(C)[C@@H]1OC(C)=O`, the Kd is > 4 mM (inactive).
For the molecule `COC(=O)Nc1nnc(-c2ccncc2)s1`, the Kd is > 4 mM (inactive).
On to `NC(=O)C1CCN(C(=O)c2ccccc2F)CC1`, for which the Kd was > 4 mM (inactive).
The value for `CC(=O)Oc1c2c(c(CC=C(C)C)c3c1C(=O)C1=C[C@@H]4CC5C(C)(C)OC(C/C=C(\C)C(=O)O)(C4=O)[C@@]15O3)OC(C)(CCC=C(C)C)C=C2` (stereo partly drawn) was > 4 mM (inactive).

As usually defined, the Kd is the free concentration of one partner at which half of the binding sites on the other are occupied at equilibrium, for simple one-to-one binding.
